According to article PMC7116876, “Mechanistic Insights into Regulation of the ALC1 Remodeler by the Nucleosome Acidic Patch” (Cell reports, 2020):

Columns and labels:
[1] = molecular target: T1, WT/WT nucleosomes (acidic patch) (Xenopus laevis, UniProt P02281+P06897+P62799); test: Competition fluorescence anisotropy with LANA-TAMRA pre-bound to WT/WT nucleosomes; assay type: binding, Xenopus laevis histones; conditions: LANA-TAMRA 10 nM, WT/WT nucleosomes 100 nM, varying unlabeled ALC1^RLS peptide, 30°C; n = 3 independent experiments
T1 construct: made in house; host or cells: E. coli BL21 (DE3) pLysS
Method: For binding studies, we used nucleosomes without linker DNA (WT/WT or APM/APM) as well as the following synthetic peptides (as detailed above): LANA peptide-TAMRA, ALC1^RLS peptide-TAMRA, and ALC1^RLS peptide. Fluorescence anisotropy measurements were carried out at 30°C using a CLARIOstar microplate reader (BMG Labtech). Binding curves were recorded in black low-volume 384-well assay plates (Corning). Individual wells contained 10 nM peptide and the indicated concentration of nucleosomes in 15 mM HEPES pH 7.5,1 mM EDTA, 5% glycerol, and 1 mM DTT. Dissociation constants were determined by fitting the fluorescence anisotropy data to the solution of a quadratic equation derived from the binding isotherm, which took into account depletion of peptide: r=αA+KD+B−A+KD+B^2−4AB , where r is the fluorescence anisotropy, A represents the total concentration of peptide, a is a scaling factor, KD is the dissociation constant, and B is the total concentration of titrated ligand. […]
For fluorescence anisotropy binding experiments, the reported values represent the mean ± SEM from 3 independent experiments. […] For ensemble nucleosome remodeling time courses, each experimental condition was recorded in 3 independent experiments, and representative remodeling time courses are shown. […]

[2] = system: APM/APM nucleosomes (H2A E61A, E64A, D90A, E92A); test: Fluorescence anisotropy binding assay, APM/APM nucleosomes; set-up: species or system Xenopus laevis histones; conditions: 10 nM TAMRA-labeled peptide, 15 mM HEPES pH 7.5, 30°C, one representative curve of two independent experiments
Description: (§1) The DNA constructs used in the nucleosome assembly for single-molecule and ensemble remodeling studies comprised the Widom 601 nucleosome positioning sequence ([Lowary and Widom, 1998]) as well as either 3 bp or 12 bp of linker DNA on one side and 78 bp on the other side (for the single-molecule remodeling construct) or 63 bp of linker DNA on one side and no linker DNA on the other side (for the ensemble remodeling construct). All constructs were 5’-labeled with Cy5 on the short linker end. The constructs for single-molecule experiments additionally featured a biotin on the long linker end. […] The DNA constructs for the assembly of nucleosomes used in fluorescence anisotropy experiments and ATPase assays comprised the Widom 601 positioning sequence without additional linker DNA (for the fluorescence anisotropy construct) or 63 bp of linker DNA on one side and no linker DNA on the other side (for the ATPase assay construct). […]
For binding studies, we used nucleosomes without linker DNA (WT/WT or APM/APM) as well as the following synthetic peptides (as detailed above): LANA peptide-TAMRA, ALC1^RLS peptide-TAMRA, and ALC1^RLS peptide. Fluorescence anisotropy measurements were carried out at 30°C using a CLARIOstar microplate reader (BMG Labtech). Binding curves were recorded in black low-volume 384-well assay plates (Corning). […]

[3] = system: ALC1-catalyzed remodeling of WT/WT nucleosomes; test: Ensemble FRET nucleosome remodeling, WT/WT nucleosomes; assay type: biochemical, Homo sapiens ALC1; Xenopus laevis histones; conditions: WT/WT nucleosomes 10 nM preincubated with 80 μM LANA peptide 5 min room temperature; 80 nM ALC1^fl R860W (Fig 1C) or 80 nM ALC1^fl activated with PARP1/NAD+ (Fig S1C)
Description: cDNAs for ALC1 and PARP1 were of Homo sapiens origin. Histone proteins (recombinantly expressed in E. coli) were of Xenopus laevis origin. Cell lines as well as growth conditions are described in the Method Details.
Oligonucleotides used in this study were ordered from IDT (see Table S3). The ALC1^fl (16-879) construct contains the human ALC1 sequence and a 6xHis-tag, as previously published ([Lehmann et al., 2017]). All point mutations were generated by PCR-based site-directed mutagenesis. The plasmid for human PARP1 (1-1014) with an N-terminal 6xHis-tag was a kind gift from John M. Pascal ([Langelier et al., 2017]).
as §1, with “construct).” for “construct). All constructs were 5’-labeled with Cy5 on the short linker end. The constructs for single-molecule experiments additionally featured a biotin on the long linker end.”

“EKASQEGRSLRNKGSVLIPGL [ALC1^RLS peptide, N-terminal regulatory linker segment (residues 604–624) of ALC1, unlabeled]” was tested. Which “effect on fluorescence anisotropy of pre-formed LANA-TAMRA peptide-nucleosome complex” value [1] did it give?
The value was “caused a decrease in its fluorescence anisotropy in a dose-dependent manner”.

Which “affinity for nucleosomes with AP mutations on both H2A/H2B dimers” value [2] does the source give for CC[C@H](C)[C@H](NC(=O)[C@H](CC(C)C)NC(=O)[C@@H](NC(=O)[C@H](CO)NC(=O)CNC(=O)[C@H](CCCCN)NC(=O)[C@H](CC(N)=O)NC(=O)[C@H](CCCNC(=N)N)NC(=O)[C@H](CC(C)C)NC(=O)[C@H](CO)NC(=O)[C@H](CCCNC(=N)N)NC(=O)CNC(=O)[C@H](CCC(=O)O)NC(=O)[C@H](CCC(N)=O)NC(=O)[C@H](CO)NC(=O)[C@H](C)NC(=O)[C@H](CCCCN)NC(=O)[C@@H](N)CCC(=O)O)C(C)C)C(=O)N1CCC[C@H]1C(=O)NCC(=O)N[C@@H](CC(C)C)C(=O)N[C@@H](CCCCNC(=O)c1ccc2c(c1)C(=O)OC21c2ccc(N(C)C)cc2Oc2cc(N(C)C)ccc21)C(=O)O [ALC1^RLS-TAMRA] here?
Its value is “substantially reduced affinity”.

“MAPPGMRLRSGRSTGAPLTRGS [LANA peptide, peptide derived from the latency-associated nuclear antigen (LANA) of Kaposi's sarcoma-associated herpesvirus, reference compound]” was tested. Which “effect on ALC1-catalyzed remodeling” value [3] did it give?
Its value is “completely abrogated ALC1-catalyzed remodeling”.
